# Paper PMC10711165, “DNA conformational dynamics in the context-dependent non-CG CHH methylation by plant methyltransferase DRM2” (The Journal of Biological Chemistry, 2023)
# Biological target: T1, DRM2 MTase domain (DOMAINS REARRANGED METHYLTRANSFERASE 2) (Arabidopsis thaliana, UniProt Q9M548)
# T1 construct: MTase domain, residues 270-626, His6-SUMO tag cleaved by ULP1, expressed in E. coli BL21 DE3 (RIL); residues 275-626 traced in crystal
# T1 sequence (Q9M548 270-626): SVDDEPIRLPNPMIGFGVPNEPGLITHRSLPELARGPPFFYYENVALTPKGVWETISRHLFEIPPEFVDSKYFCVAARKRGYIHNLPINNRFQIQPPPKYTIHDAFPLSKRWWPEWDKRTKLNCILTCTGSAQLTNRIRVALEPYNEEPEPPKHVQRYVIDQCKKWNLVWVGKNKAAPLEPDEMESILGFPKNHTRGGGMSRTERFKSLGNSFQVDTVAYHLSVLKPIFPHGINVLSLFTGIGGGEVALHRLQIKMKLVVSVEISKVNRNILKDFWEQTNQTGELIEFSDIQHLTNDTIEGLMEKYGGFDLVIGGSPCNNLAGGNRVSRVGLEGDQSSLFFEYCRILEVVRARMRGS
# Assay: X-ray crystallography, […] A
# Assay type: binding
# Conditions: covalent complex of protein C587 with 18-mer 5-fluorocytosine CTA DNA duplex; SAH at the cofactor site; crystals at 4 °C, 1 mM SAH
structure (smiles),measurement,value
Nc1ncnc2c1ncn2[C@@H]1O[C@H](CSCC[C@H](N)C(=O)O)[C@@H](O)[C@H]1O [S-adenosyl-homocysteine],"X-ray crystallography, 2.91 A",The crystal structure of the DRM2-CTA complex bound to cofactor by-product S-adenosyl-homocysteine (SAH)
